Test results: ChEMBL document CHEMBL1139920, “Synthesis and biological evaluation of diamine-based histamine H3 antagonists with serotonin reuptake inhibitor activity” (Bioorg Med Chem Lett, 2007)
pKi: −log10 of the molar value.

Experiments:
[1] = target: Sodium-dependent serotonin transporter (Rattus norvegicus, UniProt P31652); experiment: Binding affinity at rat SERT
Histamine H3 receptor [2] = target: T1, Histamine H3 receptor (Homo sapiens, UniProt Q9Y5N1); experiment: Binding affinity at human histamine H3 receptor
T1 sequence (Q9Y5N1 whole entry): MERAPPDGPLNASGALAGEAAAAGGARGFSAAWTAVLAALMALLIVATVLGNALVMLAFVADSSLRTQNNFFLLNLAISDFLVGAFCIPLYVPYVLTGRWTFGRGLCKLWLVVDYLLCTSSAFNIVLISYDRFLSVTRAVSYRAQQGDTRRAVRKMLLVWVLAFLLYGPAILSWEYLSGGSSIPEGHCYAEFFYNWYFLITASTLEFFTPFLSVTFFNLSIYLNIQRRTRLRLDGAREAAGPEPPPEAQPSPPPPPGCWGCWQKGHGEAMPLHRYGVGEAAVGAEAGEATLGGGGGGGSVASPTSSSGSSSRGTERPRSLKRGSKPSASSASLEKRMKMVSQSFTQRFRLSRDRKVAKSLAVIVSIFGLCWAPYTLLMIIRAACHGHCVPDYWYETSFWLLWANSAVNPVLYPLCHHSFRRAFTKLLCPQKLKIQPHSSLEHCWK

[3] = target: T2, Sodium-dependent noradrenaline transporter (Homo sapiens, UniProt P23975); experiment: Binding affinity at human noradrenaline transporter
T2 sequence (P23975 whole entry): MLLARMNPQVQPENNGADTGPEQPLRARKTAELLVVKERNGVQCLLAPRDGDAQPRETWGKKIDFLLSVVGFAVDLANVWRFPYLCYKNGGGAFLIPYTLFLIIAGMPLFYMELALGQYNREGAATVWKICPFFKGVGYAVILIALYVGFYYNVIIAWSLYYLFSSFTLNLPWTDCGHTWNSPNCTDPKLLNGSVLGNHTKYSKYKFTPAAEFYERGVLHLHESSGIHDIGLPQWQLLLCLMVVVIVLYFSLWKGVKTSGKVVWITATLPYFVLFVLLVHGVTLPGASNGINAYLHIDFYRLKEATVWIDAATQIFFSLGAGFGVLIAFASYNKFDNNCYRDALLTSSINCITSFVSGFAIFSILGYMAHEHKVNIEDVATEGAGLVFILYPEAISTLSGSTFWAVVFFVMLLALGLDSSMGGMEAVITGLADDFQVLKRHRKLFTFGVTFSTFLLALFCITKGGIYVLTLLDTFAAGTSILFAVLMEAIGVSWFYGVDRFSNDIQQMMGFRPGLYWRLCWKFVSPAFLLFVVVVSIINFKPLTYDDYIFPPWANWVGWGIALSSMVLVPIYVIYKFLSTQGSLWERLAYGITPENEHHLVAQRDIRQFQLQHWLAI

Histamine H3 receptor [4] = target: T1, Histamine H3 receptor; experiment: Antagonist activity at human histamine H3 receptor; assay type: functional; conditions: read-out: pA2 (converted)
[5] = target: T2, Sodium-dependent noradrenaline transporter; experiment: Binding affinity at noradrenaline transporter at 1 uM
[6] = target: Histamine H2 receptor (Homo sapiens) (UniProt P25021); experiment: Binding affinity at histamine H2 receptor at 1 uM
Chain of Histamine H2 receptor (Homo sapiens) (P25021 whole entry): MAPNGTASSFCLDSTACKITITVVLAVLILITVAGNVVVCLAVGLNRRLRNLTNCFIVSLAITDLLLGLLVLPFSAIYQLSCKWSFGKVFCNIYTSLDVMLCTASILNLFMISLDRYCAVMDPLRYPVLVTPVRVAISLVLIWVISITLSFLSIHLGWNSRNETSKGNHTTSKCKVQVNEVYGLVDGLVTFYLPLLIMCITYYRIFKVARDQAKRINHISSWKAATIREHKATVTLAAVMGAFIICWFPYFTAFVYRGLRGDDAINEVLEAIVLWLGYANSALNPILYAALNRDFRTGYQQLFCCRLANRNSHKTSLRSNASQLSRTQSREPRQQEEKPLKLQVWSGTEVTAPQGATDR

[7] = target: Sodium-dependent serotonin transporter (Homo sapiens, UniProt P31645); experiment: Binding affinity at human SERT
Chain of Sodium-dependent serotonin transporter (Homo sapiens, UniProt P31645) (P31645 whole entry): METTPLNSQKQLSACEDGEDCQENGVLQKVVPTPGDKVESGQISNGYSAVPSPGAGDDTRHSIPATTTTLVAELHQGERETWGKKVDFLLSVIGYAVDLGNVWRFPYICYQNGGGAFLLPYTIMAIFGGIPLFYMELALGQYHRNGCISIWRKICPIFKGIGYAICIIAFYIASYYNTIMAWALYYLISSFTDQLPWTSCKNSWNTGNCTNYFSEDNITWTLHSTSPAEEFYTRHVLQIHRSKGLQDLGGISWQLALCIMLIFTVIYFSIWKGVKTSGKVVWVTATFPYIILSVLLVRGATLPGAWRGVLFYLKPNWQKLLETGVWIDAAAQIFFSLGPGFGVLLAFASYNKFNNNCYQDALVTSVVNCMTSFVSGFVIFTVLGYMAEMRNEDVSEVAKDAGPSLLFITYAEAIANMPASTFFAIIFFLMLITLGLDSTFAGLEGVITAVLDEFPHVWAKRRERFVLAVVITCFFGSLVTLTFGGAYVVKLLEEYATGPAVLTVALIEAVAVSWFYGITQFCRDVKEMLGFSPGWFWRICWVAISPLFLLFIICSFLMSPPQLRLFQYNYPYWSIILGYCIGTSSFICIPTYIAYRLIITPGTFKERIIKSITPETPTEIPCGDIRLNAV

Chain of Sodium-dependent serotonin transporter (Rattus norvegicus, UniProt P31652) (P31652 whole entry): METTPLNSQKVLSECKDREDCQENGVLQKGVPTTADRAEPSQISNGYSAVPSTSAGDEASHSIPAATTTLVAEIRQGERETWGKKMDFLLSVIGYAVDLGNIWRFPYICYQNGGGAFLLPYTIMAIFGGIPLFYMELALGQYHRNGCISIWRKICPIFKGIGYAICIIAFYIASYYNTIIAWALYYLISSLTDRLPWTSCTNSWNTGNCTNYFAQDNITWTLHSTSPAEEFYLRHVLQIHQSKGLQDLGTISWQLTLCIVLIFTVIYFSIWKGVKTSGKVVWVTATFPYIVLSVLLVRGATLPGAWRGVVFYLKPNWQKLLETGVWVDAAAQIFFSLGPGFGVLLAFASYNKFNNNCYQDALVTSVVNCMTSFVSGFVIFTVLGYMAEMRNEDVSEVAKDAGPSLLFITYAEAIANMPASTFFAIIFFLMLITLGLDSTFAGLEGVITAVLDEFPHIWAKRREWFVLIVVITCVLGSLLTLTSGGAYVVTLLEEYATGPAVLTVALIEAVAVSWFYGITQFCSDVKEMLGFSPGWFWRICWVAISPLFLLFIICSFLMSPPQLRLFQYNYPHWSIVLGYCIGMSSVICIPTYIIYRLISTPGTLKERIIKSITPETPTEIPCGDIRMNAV

Row | pKi [1] | pKi (Histamine H3 receptor [2]) | Compound | other results
1 | 7.20 | 9.10 | CC(C)N1CCN(C(=O)c2ccc(C(CCN(C)C)Oc3ccccc3)cc2)CC1 (stereo not given) | –
2 | – | 9.22 | CN(C)CCC(Oc1ccccc1)c1ccc(OCCCN2CCCCC2)cc1 (stereo not given) | pKi [3]: 6.70; Kb (Histamine H3 receptor [4]): 0.501 nM; Activity [5]: 73%; Activity [6]: 66%
3 | – | 9.05 | CN(C)CCC(Oc1cccc(Cl)c1)c1ccc(OCCCN2CCCCC2)cc1 (stereo in doubt; 38) | pKi [7]: 7.68
4 | – | 8.48 | CN(C)CCC(Oc1ccccc1)c1cccc(OCCCN2CCCCC2)c1 (stereo not given) | –
5 | – | 9.00 | COc1ccc(OC(CCN(C)C)c2ccc(OCCCN3CCCCC3)cc2)cc1 (stereo not given) | –
6 | 8.43 | – | CN(C)CCC(Oc1ccc([N+](=O)[O-])cc1)c1ccc(OCCCN2CCCCC2)cc1 (stereo not given) | pKi [7]: 8.06
7 | 8.64 | – | CN(C)CCC(Oc1ccc(Cl)cc1)c1ccc(OCCCN2CCCCC2)cc1 (stereo not given) | –
8 | 8.70 | – | COc1cccc(OC(CCN(C)C)c2ccc(OCCCN3CCCCC3)cc2)c1 (stereo not given) | –
9 | – | 8.64 | CC(C)N1CCN(C(=O)c2ccc(C(CCN(C)C)Oc3ccc(C(F)(F)F)cc3)cc2)CC1 (stereo not given) | –
10 | 8.64 | – | CN(C)CCC(Oc1cccc(Br)c1)c1ccc(OCCCN2CCCCC2)cc1 (stereo not given) | –
11 | – | 9.05 | CN(C)CCC(Oc1cccc(Cl)c1)c1ccc(OCCCN2CCCCC2)cc1 (stereo in doubt; 37) | pKi [7]: 8.57
12 | 8.11 | – | CN(C)CCC(Oc1ccc(C#N)cc1)c1ccc(OCCCN2CCCCC2)cc1 (stereo not given) | –
13 | 7.48 | 8.30 | CN(C)CCC(Oc1ccc(C(F)(F)F)cc1)c1ccc(C#CCCN2CCCCC2)cc1 (stereo not given) | –
14 | 8.11 | 5.18 | CN(C)CCC(Oc1ccc(C(F)(F)F)cc1)c1ccccc1 (stereo not given) | pKi [7]: 8.08
15 | 7.41 | – | CC(C)N1CCC(Oc2ccc(C(CCN(C)C)Oc3ccccc3)cc2)CC1 (stereo not given) | –
16 | 8.11 | – | CN(C)CCC(Oc1ccc(Cl)c(Cl)c1)c1ccc(OCCCN2CCCCC2)cc1 (stereo in doubt; 40) | –
17 | 8.15 | – | CN(C)CCC(Oc1ccc(Cl)c(Cl)c1)c1ccc(OCCCN2CCCCC2)cc1 (stereo in doubt; 39) | –
18 | 8.00 | 8.57 | CN(C)CCC(Oc1ccc(C(F)(F)F)cc1)c1ccc(OCCCN2CCCCC2)cc1 (stereo not given) | –
19 | – | – | CN(C)CCC(Oc1cccc(OCCCN2CCCCC2)c1)c1ccccc1 (stereo not given) | pKi [7]: 5.83
20 | – | – | CN(C)CCC(Oc1ccc(Br)cc1)c1ccc(OCCCN2CCCCC2)cc1 (stereo not given) | pKi [7]: 8.05
21 | 8.22 | 8.89 | CN(C)CCC(Oc1ccccc1)c1ccc(C#CCCN2CCCCC2)cc1 (stereo not given) | –
22 | – | 9.15 | Cc1ccc(OC(CCN(C)C)c2ccc(OCCCN3CCCCC3)cc2)cc1 (stereo not given) | –
